Values after ≈ are worked out from the molar mass of the structure shown. Read-outs that look alike come from different tables or passages of the source.
Key:
Assay type in all cases: physicochemical
[1] = Bulk/tapped density, compressibility index, Hausner ratio and flowability of drug substance
Procedure: (§1) Moreover, this low aqueous solubility of ticagrelor leads to an increase of relevance of particle size. Solubility studies in human intestinal fluids, bulk-tapped density, compressibility index, Hausner ratio, flowability studies of drug substance were performed prior to beginning of the development process of pharmaceutical drug product.
In addition, bulk density and tapped density values of ticagrelor was investigated. By using the results obtained, compressibility index, Hausner ratio and flowability of drug substance was designated.

[2] = Solubility study of ticagrelor drug substance in water and pH media
Procedure: as §1

[3] = Particle size distribution analysis
Procedure: Moreover, particle size distribution analysis for ticagrelor was performed.

For `CCCSc1nc(N[C@@H]2C[C@H]2c2ccc(F)c(F)c2)c2nnn([C@@H]3C[C@H](OCCO)[C@@H](O)[C@H]3O)c2n1` [Ticagrelor, (1S,2S,3R,5S)-3-(7-{[(1R,2S)-2-(3,4-Diflourophenyl)cyclopropyl]amino}-5-(propylsulfanyl)-3H-[1,2,3]triazol[4,5-d]pyrimidine-3-yl)-5-(2-hydroxyethoxy)cyclopentane-1,2-diol], the Bulk density [1] was 0.157, the Compressibility index [1] was 39% and the Flowability [1] was “Very poor”. For the same compound, the Hausner ratio [1] was 1.639, the Tapped density [1] was 0.257 and the solubility ([2]; pH 1.2 medium, pH 1.2, simulated gastric fluid, read-out: Average solubility, pH: 1.2) was 14 µg/mL (≈ 26.8 µM). For the same compound, the solubility ([2]; pH 4.5 medium, pH 4.5, aqueous buffer, read-out: Average solubility, pH: 4.5) was 6 µg/mL (≈ 11.5 µM), the solubility ([2]; pH 6.8 medium, pH 6.8, aqueous buffer, read-out: Average solubility, pH: 6.8) was 5 µg/mL (≈ 9.57 µM) and the solubility ([2]; water, read-out: Average solubility, Water) was 6 µg/mL (≈ 11.5 µM). For the same compound, the D10 [3] was 3.0 µm, the D50 [3] was 6.4 µm and the D90 [3] was 12.5 µm.
